From publication PMC6934184, “Selective DNA-PKcs inhibition extends the therapeutic index of localized radiotherapy and chemotherapy” (The Journal of Clinical Investigation, 2019)

Biological target: T1, PLK1 (Homo sapiens, UniProt P53350)
T1 construct: purchased Thermo Fisher Scientific (Life Technologies) SelectScreen
Assay: SelectScreen Z'LYTE
Format: biochemical
Method in brief: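 SelectScreen broad panel; activity (Z'LYTE, Adapta) plus binding formats. ATP: Km app for CSF1R Z'LYTE; 10 for CAMK1 Adapta. Readout = % per kinase.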

T1 sequence (P53350 whole entry): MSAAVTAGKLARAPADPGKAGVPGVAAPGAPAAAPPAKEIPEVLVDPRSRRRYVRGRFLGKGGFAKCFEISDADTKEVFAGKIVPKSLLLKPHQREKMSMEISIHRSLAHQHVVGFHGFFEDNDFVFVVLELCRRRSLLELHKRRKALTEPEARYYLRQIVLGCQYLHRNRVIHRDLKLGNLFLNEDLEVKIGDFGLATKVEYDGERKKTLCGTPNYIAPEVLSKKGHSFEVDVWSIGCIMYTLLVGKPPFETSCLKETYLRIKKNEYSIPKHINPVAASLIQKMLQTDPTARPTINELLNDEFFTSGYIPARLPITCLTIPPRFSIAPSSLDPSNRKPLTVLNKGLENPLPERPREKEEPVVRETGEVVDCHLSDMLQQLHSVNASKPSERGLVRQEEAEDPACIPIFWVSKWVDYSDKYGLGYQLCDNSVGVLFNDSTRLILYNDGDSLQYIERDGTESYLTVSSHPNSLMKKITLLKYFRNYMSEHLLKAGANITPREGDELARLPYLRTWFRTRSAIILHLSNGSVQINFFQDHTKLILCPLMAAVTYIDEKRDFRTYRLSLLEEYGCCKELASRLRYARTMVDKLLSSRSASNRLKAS

CN(C(=O)CN1CCOCC1)c1ccc2sc3c(-c4cccc5c(=O)cc(N6CC7CCC(C6)O7)oc45)cccc3c2c1 [NU5455]
inhibition at 1 µM: 9.2%
